# Data taken from patent publication US20250122191A1, “COMPOUNDS AS BCL-2 INHIBITORS” (Fochon Biosciences, Ltd, priority 2021, published 2025).
# Tests used:
# [1] = Pharmacokinetics assay in rats; format: in vivo; conditions: rat, male Sprague-Dawley rats, po, 5 mg/kg, plasma; for Cmax: read-out: Cmax/C0
# Experimental: The purpose of this study was to determine the pharmacokinetics of Examples in male Sprague-Dawley rats (Supplied by Beijing Vital River Laboratory Animal Technology Co., Ltd.) following a single intravenous bolus injection at 1 mg/kg and oral gavage (PO) administration at 5 mg/kg.
# Animals in Group 1 were administered with Examples by single intravenous bolus injection at 1 mg/kg, which was formulated in 10% DMSO (Sigma, Batch #LPCOS181): 60% PEG400 (Sigma, Batch #MKCH6281): 30% water, pH 5-6 at 1 mg/mL as a solution. Animals in Group 2 were administered with Examples by single oral gavage (PO) administration at 5 mg/kg, which was formulated in 10% DMSO (Sigma, Batch #BCCD6641): 60% PEG400 (Sigma, Batch #MKCL4921): 30% water at 1 mg/mL as a solution. Blood samples were collected at 0.083, 0.25, 0.5, 1, 2, 4, 8, 12 and 24 hours post-dose. Concentrations of Examples in plasma were determined by LC/MS/MS (LC: Waters UPLC; MS: Triple Quad 6500 plus).
# [2] = system: Toledo cells; experiment: Cell proliferation assay (MTS), Toledo cells; format: cell-based; conditions: Homo sapiens, 72 h
# Summary of the method: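 Toledo cells (RPMI-1640, 10% FBS) seeded at 30000 cells/well, rested 4 h, then exposed 72 h at 37 °C, 5% CO2 to compound at nine final concentrations, 1.5–10000 nM. Viability by MTS (2 h), absorbance at 490 nm. IC50 from the concentration-response.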
# [3] = system: RS4;11-BCL-2 G101V cells; experiment: Cell proliferation assay (MTS), RS4;11-BCL-2 G101V engineered cells; format: cell-based; conditions: Homo sapiens, 120 h, read-out: RS4, 11 BCL2-G101V IC50
# Summary of the method: (§1)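 Inhibition of mutant BCL-2 is inferred from reduced proliferation of RS4;11 cells stably overexpressing the mutant. Compounds are tested at 1.5–10000 nM for 120 h (G101V, F104L) or 72 h (D103E, D103Y), with MTS absorbance at 490 nm used to derive IC50.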
# [4] = system: RS4;11-BCL-2 F104L cells; experiment: Cell proliferation assay (MTS), RS4;11-BCL-2 F104L engineered cells; format: cell-based; conditions: Homo sapiens, 120 h, read-out: RS4, 11 BCL2-F104L IC50
# Summary of the method: as §1
# [5] = system: RS4;11-BCL-2 D103E cells; experiment: Cell proliferation assay (MTS), RS4;11-BCL-2 D103E engineered cells; format: cell-based; conditions: Homo sapiens, 72 h, read-out: RS4, 11 BCL2-D103E IC50
# Summary of the method: as §1
# [6] = system: RS4;11-BCL-2 D103Y cells; experiment: Cell proliferation assay (MTS), RS4;11-BCL-2 D103Y engineered cells; format: cell-based; conditions: Homo sapiens, 72 h, read-out: RS4, 11 BCL2-D103Y IC50
# Source text: MTS testing kit was purchased from Promega (Madison, WI, USA). The RPMI-1640, Fetal bovine serum and Penicillin-Streptomycin were purchased from BI (Biological Industries, Beit Haemek, Israel). Puromycin was purchased from Beyotime (shanghai, China). Dimethyl sulfoxide (DMSO) was purchased from Sigma (St. Louis., MO, USA). RS4;11-BCL-2 G101V (Cobioer Lot. #: CBD2021063013P4), RS4;11-BCL-2 D103E (Cobioer Lot. #: CBD2021063013P4), RS4;11-BCL-2 D103Y (Cobioer Lot. #: CBD2022012101P4) and RS4;11-BCL-2 F104L (Cobioer Lot. #: CBD2021063014P4) cells were cultured in RPMI1640 supplemented with 1 ug/mL puromycin, 100 U/mL Penicillin-Streptomycin and 10% FBS.
# To investigate whether a compound is able to inhibit the activity of BCL-2 mutation in cells, a mechanism-based assay using engineered cell lines stably overexpressing BCL-2 mutation (RS4;11-BCL-2 G101V, RS4;11-BCL-2 D103E, RS4;11-BCL-2 D103Y, and RS4;11-BCL-2 F104L) was developed. In this assay, the inhibition of BCL-2 mutation was reflected by the inhibition of cell proliferation of engineered RS4;11 cells. Cells were plated into 96-well plates at optimized cell density (RS4;11-BCL-2 G101V: 5000 cells/well; RS4;11-BCL-2 D103E: 7500 cells/well; RS4;11-BCL-2 D103Y: 7500 cells/well; RS4;11-BCL-2 F104L: 5000 cells/well). Plates were incubated at 37° C., with 5% CO2 for 4 h (RS4;11-BCL-2 G101V, RS4;11-BCL-2 F104L) and 24 h (RS4;11-BCL-2 D103E, RS4;11-BCL-2 D103Y), respectively. Compounds were serially diluted and added to the plates with the final concentrations of 10000, 3333.3, 1111.1, 370.4, 123.5, 41.2, 13.7, 4.6 and 1.5 nM. Plates were incubated at 37° C., with 5% CO2 for 120 h (RS4; 11-BCL-2 G101V, RS4; 11-BCL-2 F104L) and 72 h (RS4;11-BCL-2 D103E, RS4;11-BCL-2 D103Y), respectively. 20 μl MTS was added into each well and the plates were incubated at 37° C., with 5% CO2 exactly for 2 h. The absorbance was measured by a microplate reader at 490 nm. IC50 values were calculated using GraphPad Prism 8.0 software.
IC50 [6],SMILES,AUC(0-t) [1],half-life [1],Cmax [1],IC50 [2],IC50 [3],IC50 [4],IC50 [5]
,"COc1ccc(CN2CCN(C3CC4(CCN(c5ccc(C(=O)NS(=O)(=O)c6cnc(NC[C@H]7CC[C@](C)(O)CC7)c([N+](=O)[O-])c6)c(Oc6cc7c(F)c[nH]c7nc6OC)c5)CC4)C3)[C@H](c3ccccc3C(C)C)C2)cc1 [Example 1, 2-((3 fluoro-6-methoxy-1H pyrrolo[2,3-b]pyridin-5 yl)oxy)-N-((6-((((1r, 4r)-4-hydroxy-4-methylcyclohexyl)methyl)amino)-5-nitropyridin-3-yl)sulfonyl)-4-(2-((R)-2-(2-isopropylphenyl)-4-(4-methoxybenzyl)piperazin-1-yl)-7-azaspiro[3.5]nonan-7-yl)benzamide]",3.03 µg·h/mL,9.02 h,0.227 µg/mL,1 nM,1 nM,1 nM,2 nM
,"COc1nc2[nH]cc(F)c2cc1Oc1cc(N2CCC3(CC2)CC(N2CCN(Cc4ccc(OC)c5oc(C)cc45)C[C@H]2c2ccccc2C(C)C)C3)ccc1C(=O)NS(=O)(=O)c1cnc(NC[C@H]2CC[C@](C)(O)CC2)c([N+](=O)[O-])c1 [Example 13, 2-((3-fluoro-6-methoxy-1H-pyrrolo[2,3-b]pyridin-5-yl)oxy)-N-((6-((((1r,4r)-4-hydroxy-4-methylcyclohexyl)methyl)amino)-5-nitropyridin-3-yl)sulfonyl)-4-(2-((R)-2-(2-isopropylphenyl)-4-((7-methoxy-2-methylbenzofuran-4-yl)methyl)piperazin-1-yl)-7-azaspiro[3.5]nonan-7-yl)benzamide]",1.89 µg·h/mL,11.3 h,0.198 µg/mL,1 nM,1 nM,1 nM,1 nM
1 nM,"COc1cc(CN2CCN(C3CC4(CCN(c5ccc(C(=O)NS(=O)(=O)c6cnc(NC[C@H]7CC[C@](C)(O)CC7)c([N+](=O)[O-])c6)c(Oc6cc7c(F)c[nH]c7nc6OC)c5)CC4)C3)[C@H](c3ccccc3C(C)C)C2)cc(O)n1 [Example 69, 2-((3-fluoro-6-methoxy-1H-pyrrolo[2,3-b]pyridin-5-yl)oxy)-N-((6-((((1r,4r)-4-hydroxy-4-methylcyclohexyl)methyl)amino)-5-nitropyridin-3-yl)sulfonyl)-4-(2-((R)-4-((2-hydroxy-6-methoxypyridin-4-yl)methyl)-2-(2-isopropylphenyl)piperazin-1-yl)-7-azaspiro[3.5]nonan-7-yl)benzamide]",,,,,1 nM,,
8 nM,"COc1nc2[nH]cc(F)c2cc1Oc1cc(N2CCC3(CC2)CC(N2CCN(Cc4ccnc5c4NCC(C)O5)C[C@H]2c2ccccc2C(C)C)C3)ccc1C(=O)NS(=O)(=O)c1cnc(NC[C@H]2CC[C@](C)(O)CC2)c([N+](=O)[O-])c1 (stereo partly drawn) [Example 195, 2-((3-fluoro-6-methoxy-1H-pyrrolo[2,3-b]pyridin-5-yl)oxy)-N-((6-((((1r,4r)-4-hydroxy-4-methylcyclohexyl)methyl)amino)-5-nitropyridin-3-yl)sulfonyl)-4-(2-((2R)-2-(2-isopropylphenyl)-4-((3-methyl-2,3-dihydro-1H-pyrido[2,3-b][1,4]oxazin-8-yl)methyl)piperazin-1-yl)-7-azaspiro[3.5]nonan-7-yl)benzamide]",,,,,,,
,"COc1nc2[nH]cc(F)c2cc1Oc1cc(N2CCC3(CC2)CC(N2CCN(Cc4ccc(Cl)cc4)C[C@H]2c2ccccc2C(C)C)C3)ccc1C(=O)NS(=O)(=O)c1cnc(NC[C@H]2CC[C@](C)(O)CC2)c([N+](=O)[O-])c1 [Example 230, 4-(2-((R)-4-(4-chlorobenzyl)-2-(2-isopropylphenyl)piperazin-1-yl)-7-azaspiro[3.5]nonan-7-yl)-2-((3-fluoro-6-methoxy-1H-pyrrolo[2,3-b]pyridin-5-yl)oxy)-N-((6-((((1r,4r)-4-hydroxy-4-methylcyclohexyl)methyl)amino)-5-nitropyridin-3-yl)sulfonyl)benzamide]",3.75 µg·h/mL,10.2 h,0.329 µg/mL,1 nM,1 nM,1 nM,
,"COc1nc2[nH]cc(F)c2cc1Oc1cc(N2CCC3(CC2)CC(N2CCN(Cc4ccc(F)cc4)C[C@H]2c2ccccc2C(C)C)C3)ccc1C(=O)NS(=O)(=O)c1cnc(NC[C@H]2CC[C@](C)(O)CC2)c([N+](=O)[O-])c1 [Example 233, 2-((3-fluoro-6-methoxy-1H-pyrrolo[2,3-b]pyridin-5-yl)oxy)-4-(2-((R)-4-(4-fluorobenzyl)-2-(2-isopropylphenyl)piperazin-1-yl)-7-azaspiro[3.5]nonan-7-yl)-N-((6-((((1r,4r)-4-hydroxy-4-methylcyclohexyl)methyl)amino)-5-nitropyridin-3-yl)sulfonyl)benzamide]",3.92 µg·h/mL,7.36 h,0.439 µg/mL,1 nM,1 nM,1 nM,
,"COc1cc(CN2CCN(C3CC4(CCN(c5ccc(C(=O)NS(=O)(=O)c6cnc(NC[C@H]7CC[C@](C)(O)CC7)c([N+](=O)[O-])c6)c(Oc6cc7c(F)c[nH]c7nc6OC)c5)CC4)C3)[C@H](c3ccccc3C(C)C)C2)ccn1 [Example 242, 2-((3-fluoro-6-methoxy-1H-pyrrolo[2,3-b]pyridin-5-yl)oxy)-N-((6-((((1r,4r)-4-hydroxy-4-methylcyclohexyl)methyl)amino)-5-nitropyridin-3-yl)sulfonyl)-4-(2-((R)-2-(2-isopropylphenyl)-4-((2-methoxypyridin-4-yl)methyl)piperazin-1-yl)-7-azaspiro[3.5]nonan-7-yl)benzamide]",2.76 µg·h/mL,7.02 h,0.272 µg/mL,1 nM,1 nM,1 nM,1 nM
,"COc1nc2[nH]cc(F)c2cc1Oc1cc(N2CCC3(CC2)CC(N2CCN(Cc4ccc(C5CC5)c(OC)n4)C[C@H]2c2ccccc2C(C)C)C3)ccc1C(=O)NS(=O)(=O)c1cnc(NC[C@H]2CC[C@](C)(O)CC2)c([N+](=O)[O-])c1 [Example 289, 4-(2-((R)-4-((5-cyclopropyl-6-methoxypyridin-2-yl)methyl)-2-(2-isopropylphenyl)piperazin-1-yl)-7-azaspiro[3.5]nonan-7-yl)-2-((3-fluoro-6-methoxy-1H-pyrrolo[2,3-b]pyridin-5-yl)oxy)-N-((6-((((1r,4r)-4-hydroxy-4-methylcyclohexyl)methyl)amino)-5-nitropyridin-3-yl)sulfonyl)benzamide]",3.45 µg·h/mL,8.1 h,0.357 µg/mL,1 nM,2 nM,1 nM,1 nM
